This note sets out measurements from patent US9108923B2, “Compounds, compositions, and methods for cancer therapy” (The Broad Institute, Inc., priority 2012, dated 2015).

Where two headings read alike, the source gives them in different places.

One data set relates to H1703. The experiment in a line: ATP Assay (CellTiter-Glo), cellular ATP levels as surrogate for cell viability. Format: cell-based, human. As to conditions: read-out: EC50 H1703. The method, then: (§1) ATP Assay. […] At that time, media was removed and replaced with a solution of CellTiter-Glo reagent (Promega) in PBS. After ten minutes, luminescence was read using an EnVision multilabel plate reader (Perkin-Elmer) and signal intensity was calculated relative to in-plate DMSO control wells.
(§2) We next sought to determine the performance of the synthetic analogs relative to PL in cells. […] As a second assay, effects of compound treatments on ATP levels, a surrogate for cell viability, were measured after 48 hours.
(§3) Assays were performed in 384-well plates on two human cancer cell lines, H1703 (lung) and HeLa (cervix).
In general terms: ATP-based viability assays read luminescence as a measure of living cells.

In a further data set the test system is HeLa. The description is as above. The format is cell-based, human. As to conditions: 48 h, read-out: EC50 HeLa. The method, then: as §1, §2, §3
Data set [1] deals with HeLa cells. The experiment in a line: Glutathione Assay (GSH/GSSG-Glo), total cellular glutathione. Format: cell-based, human. Conditions: 6 h treatment.
Data set [2] deals with HeLa cells. The experiment in a line: Immunofluorescence Detection of Glutathionylated Proteins.
Data set [3] deals with EJ bladder carcinoma line. The experiment in a line: Glutathione Assay (GSH/GSSG-Glo), total cellular glutathione. As to conditions: EJ cells, 3 h treatment.
In the next data set the test system is BJ vs. BJ-ELR. The experiment in a line: Assessment of Cancer/Normal Selective Toxicity (crystal violet). Format: cell-based, human. Conditions: crystal violet staining, 48 h.
Data set [4] in a line: stability at room temperature (remark with characterisation data). Format: physicochemical.

The term EC50 denotes the concentration at which the effect is half-maximal. On to `COc1cc(/C=C/C(=O)N2CCC=CC2=O)cc(OC)c1OC` [compound 1, piperlongumine, reference compound], for which the EC50 in the data set on H1703 (Homo sapiens, NCI-H1703, 48 h) was found to be 2.8 µM; with HeLa (Homo sapiens, HeLa), 7.1 µM. Also, the “decrease in total glutathione (in words)” value in the data set on HeLa cells [1] is “most effective”. The “elevation of protein glutathionylation (in words)” value in the data set on HeLa cells [2] (HeLa cells, monoclonal antibody recognizing glutathione) was “large and rapid elevations in protein glutathionylation”. Also, the “reversal of protein glutathionylation by 0.1 M dithiothreitol” value with HeLa cells [2] (treatment with 0.1 M dithiothreitol) is on record as “could not be reversed”. Moreover, the “decrease in total cellular glutathione” value in data set [3] is recorded as “ca. 60%”.

Consider `O=C1C=CCCN1S(=O)(=O)/C=C/c1ccccc1` [compound 52, 1-{[(E)-2-phenylvinyl]sulfonyl}-5,6-dihydropyridin-2(1H)-one], for which the EC50 came out at 2.7 µM in the data set on H1703 (Table 2, cellular ATP levels, 48 h) and 4.1 µM with HeLa (Table 2, cellular ATP levels). Further, the “selective toxicity toward transformed BJ-ELR over BJ fibroblasts (in words)” value in the data set with BJ vs. BJ-ELR was “selectivity comparable to PL”.

Turning to `COc1cc(/C=C/C(=O)N2CCC=C(C#CCN(C)C)C2=O)cc(OC)c1OC` [(E)-3-(3-(dimethylamino)prop-1-ynyl)-1-(3-(3,4,5-trimethoxyphenyl)prop-2-enoyl)-5,6-dihydropyridin-2(1H)-one], the “stability at room temperature” value in data set [4] was “decomposes slowly at room temperature”.
